In ChEMBL document CHEMBL3045630, “Predictive QSAR modeling on tetrahydropyrimidine-2-one derivatives as HIV-1 protease enzyme inhibitors” (Med Chem Res, 2013):
pKi: −log10 of the molar value.

Molecular target: Protease (Human immunodeficiency virus 1, UniProt Q9YQ12)
Assay: Inhibition of Human immunodeficiency virus 1 protease

Protease, sequence (Q9YQ12 whole entry): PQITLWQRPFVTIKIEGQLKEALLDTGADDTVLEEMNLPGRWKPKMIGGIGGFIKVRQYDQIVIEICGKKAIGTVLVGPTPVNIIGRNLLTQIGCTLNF

SMILES: O=C1N(Cc2ccccc2)C(Cc2ccccc2)C(O)C(C(Br)Cc2ccccc2)N1Cc1ccccc1 (centres undefined)
- pKi: 6.73

SMILES: O=C1NC(CCc2ccccc2)C(O)C(Cc2ccccc2)N1Cc1ccccc1 (centres undefined)
- pKi: 7.18

SMILES: N#Cc1cccc(CN2C(=O)NC(CCc3ccccc3)C(O)C2Cc2ccccc2)c1 (centres undefined)
- pKi: 7.82

SMILES: Nc1cccc(CN2C(=O)NC(CCc3ccccc3)C(O)C2Cc2ccccc2)c1 (centres undefined)
- pKi: 6.80

SMILES: Nc1cccc(CN2C(=O)NC(Cc3ccccc3)C(O)C2CCc2ccccc2)c1 (centres undefined)
- pKi: 8.21

SMILES: N#Cc1cccc(CN2C(=O)N(Cc3cccc(C#N)c3)C(Cc3ccccc3)C(O)C2CCc2ccccc2)c1 (centres undefined)
- pKi: 7.96

SMILES: CC(=O)c1cccc(CN2C(=O)N(Cc3cccc(C(C)=O)c3)C(Cc3ccccc3)C(O)C2CCc2ccccc2)c1 (centres undefined)
- pKi: 9.04

SMILES: NC(=O)c1cccc(CN2C(=O)N(Cc3cccc(C(N)=O)c3)C(Cc3ccccc3)C(O)C2CCc2ccccc2)c1 (centres undefined)
- pKi: 10.05

SMILES: NC(=O)c1cccc(CN2C(=O)N(Cc3cccc(C(N)=O)c3)C(Cc3ccc(F)cc3)C(O)C2CCc2ccc(F)cc2)c1 (centres undefined)
- pKi: 9.51

SMILES: NC(=O)c1cccc(CN2C(=O)N(Cc3cccc(C(N)=O)c3)C(Cc3ccc(F)c(F)c3)C(O)C2CCc2ccc(F)c(F)c2)c1 (centres undefined)
- pKi: 9.82

SMILES: N/C(=N/O)c1cccc(CN2C(=O)N(Cc3cccc(/C(N)=N\O)c3)C(Cc3ccc(F)cc3)C(O)C2CCc2ccc(F)cc2)c1 (centres undefined)
- pKi: 10.70

SMILES: N/C(=N/O)c1cccc(CN2C(=O)N(Cc3cccc(/C(N)=N\O)c3)C(Cc3ccc(F)c(F)c3)C(O)C2CCc2ccc(F)c(F)c2)c1 (centres undefined)
- pKi: 11.00

SMILES: N/C(=N/O)c1cc(CN2C(=O)N(Cc3ccc(F)c(/C(N)=N\O)c3)C(Cc3ccc(F)c(F)c3)C(O)C2CCc2ccccc2)ccc1F (centres undefined)
- pKi: 10.22

SMILES: Nc1cccc(CN2C(=O)N(Cc3cccc(N)c3)C(Cc3ccccc3)C(O)C2CCc2ccccc2)c1 (centres undefined)
- pKi: 8.77

SMILES: Nc1ccc(CN2C(=O)N(Cc3ccc(N)c(F)c3)C(Cc3ccccc3)C(O)C2CCc2ccccc2)cc1F (centres undefined)
- pKi: 8.10

SMILES: CNc1cccc(CN2C(=O)N(Cc3cccc(NC)c3)C(Cc3ccccc3)C(O)C2CCc2ccccc2)c1 (centres undefined)
- pKi: 7.64

SMILES: O=C1N(Cc2cccc(-n3cccn3)c2)C(CCc2ccccc2)C(O)C(Cc2ccccc2)N1Cc1cccc(-n2cccn2)c1 (centres undefined)
- pKi: 10.00

SMILES: O=C1N(Cc2ccc3[nH]ncc3c2)C(CCc2ccccc2)C(O)C(Cc2ccccc2)N1Cc1ccc2[nH]ncc2c1 (centres undefined)
- pKi: 10.22

SMILES: Cc1n[nH]c2ccc(CN3C(=O)N(Cc4ccc5[nH]nc(C)c5c4)C(Cc4ccccc4)C(O)C3CCc3ccccc3)cc12 (centres undefined)
- pKi: 10.00

SMILES: Nc1n[nH]c2ccc(CN3C(=O)N(Cc4ccc5[nH]nc(N)c5c4)C(Cc4ccccc4)C(O)C3CCc3ccccc3)cc12 (centres undefined)
- pKi: 10.52

SMILES: O=C1N(Cc2cccc(O)c2)C(Cc2ccccc2)C(O)C(C(F)Cc2ccccc2)N1Cc1cccc(O)c1 (centres undefined)
- pKi: 7.92

SMILES: O=C1N(Cc2cccc(CO)c2)C(Cc2ccccc2)C(O)C(C(Br)Cc2ccccc2)N1Cc1cccc(CO)c1 (centres undefined)
- pKi: 7.96

SMILES: N#Cc1cc(CN2C(=O)NC(CCc3ccccc3)C(O)C2Cc2ccccc2)ccc1F (centres undefined)
- pKi: 6.96

SMILES: NC(=O)c1cccc(CN2C(=O)NC(CCc3ccccc3)C(O)C2Cc2ccccc2)c1 (centres undefined)
- pKi: 8.25

SMILES: NC(=O)c1cc(CN2C(=O)NC(CCc3ccccc3)C(O)C2Cc2ccccc2)ccc1F (centres undefined)
- pKi: 7.85

SMILES: N/C(=N/O)c1cccc(CN2C(=O)NC(CCc3ccccc3)C(O)C2Cc2ccccc2)c1 (centres undefined)
- pKi: 9.62

SMILES: N/C(=N/O)c1cc(CN2C(=O)NC(CCc3ccccc3)C(O)C2Cc2ccccc2)ccc1F (centres undefined)
- pKi: 8.85

SMILES: Cc1n[nH]c2ccc(CN3C(=O)NC(CCc4ccccc4)C(O)C3Cc3ccccc3)cc12 (centres undefined)
- pKi: 9.42

SMILES: O=C1NC(CCc2ccccc2)C(O)C(Cc2ccccc2)N1Cc1ccc2[nH]ncc2c1 (centres undefined)
- pKi: 8.92

SMILES: N#Cc1cc(CN2C(=O)N(Cc3ccccc3)C(Cc3ccccc3)C(O)C2CCc2ccccc2)ccc1F (centres undefined)
- pKi: 7.48

SMILES: N#Cc1cc(CN2C(=O)N(Cc3ccccc3)C(CCc3ccccc3)C(O)C2Cc2ccccc2)ccc1F (centres undefined)
- pKi: 7.40

SMILES: Nc1n[nH]c2cc(CN3C(=O)N(Cc4ccccc4)C(Cc4ccccc4)C(O)C3CCc3ccccc3)ccc12 (centres undefined)
- pKi: 9.19

SMILES: Nc1n[nH]c2ccc(CN3C(=O)N(Cc4ccccc4)C(CCc4ccccc4)C(O)C3Cc3ccccc3)cc12 (centres undefined)
- pKi: 9.55

SMILES: Cc1n[nH]c2cc(CN3C(=O)N(Cc4cccc(N)c4)C(Cc4ccccc4)C(O)C3CCc3ccccc3)ccc12 (centres undefined)
- pKi: 9.89

SMILES: N#Cc1cccc(CN2C(=O)N(Cc3cccc(N)c3)C(Cc3ccccc3)C(O)C2CCc2ccccc2)c1 (centres undefined)
- pKi: 8.80

SMILES: Nc1cccc(CN2C(=O)N(Cc3ccc4c(N)n[nH]c4c3)C(CCc3ccccc3)C(O)C2Cc2ccccc2)c1 (centres undefined)
- pKi: 10.00

SMILES: N#Cc1cccc(CN2C(=O)N(Cc3cccc(C#N)c3)C(Cc3cccc(F)c3)C(O)C2CCc2ccc(F)cc2)c1 (centres undefined)
- pKi: 7.85

SMILES: Nc1cc(CN2C(=O)N(Cc3ccc(F)c(N)c3)C(Cc3ccccc3)C(O)C2CCc2ccccc2)ccc1F (centres undefined)
- pKi: 9.60

SMILES: Cc1ccc(C(=O)Nc2cccc(CN3C(=O)N(Cc4cccc(NC(=O)c5ccc(C)cn5)c4)C(Cc4ccccc4)C(O)C3CCc3ccccc3)c2)nc1 (centres undefined)
- pKi: 10.10

SMILES: CN1C=CSC1C(=O)Nc1cccc(CN2C(=O)N(Cc3cccc(NC(=O)C4SC=CN4C)c3)C(Cc3ccccc3)C(O)C2CCc2ccccc2)c1 (centres undefined)
- pKi: 10.52

SMILES: O=C1NC(Cc2ccccc2)C(O)C(CCc2ccccc2)N1Cc1ccc2cn[nH]c2c1 (centres undefined)
- pKi: 7.36

SMILES: Nc1cccc(CN2C(=O)N(Cc3ccc4cn[nH]c4c3)C(Cc3ccccc3)C(O)C2CCc2ccccc2)c1 (centres undefined)
- pKi: 10.10

SMILES: NC(=O)c1cccc(CN2C(=O)N(Cc3cccc(N)c3)C(Cc3ccccc3)C(O)C2CCc2ccccc2)c1 (centres undefined)
- pKi: 10.22

SMILES: O=C1N(Cc2ccccc2)C(CCc2ccccc2)C(O)C(Cc2ccccc2)N1Cc1ccccc1 (centres undefined)
- pKi: 7.82
